Entries after “also recorded” stand apart in the source; their conditions may differ.
Assays:
[1] = test system: human zygotes and parthenotes; test: timing of mitotic entry in human zygotes and parthenotes; type: cell-based; settings: for mitotic entry: human parthenotes
Experimental: (§1) Embryos, mouse and human, were cultured in Global Total (Life-Global) for the duration of the experiments and with added compounds as outlined below. Incubation in RNA polymerase inhibitors triptolide (1 mM) or alpha amanitin (20 mg/ml) was performed from the 2PN stage (day1) to day3 of human development. Incubation in aphidicolin was performed at 2 mM. […] Mirin was used at a concentration of 50 mM. Olaparib was used to inhibit PARP at a concentration of 10 mM. All experiments were conducted during incubation at 37° C. with 5% CO2 and 19-20% O2. Chemical stock solutions were prepared in DMSO at concentrations at least 1000× higher than the final concentration.
Artificial activation of human MII oocytes was performed using two pulses of 2.7 kV/cm at 50 ms using ECFG21 (Nepagene) in fusion buffer consisting of 0.25 M d-sorbitol buffer containing 0.1 mM calcium acetate, 0.5 mM magnesium acetate, 0.5 mM HEPES, and 1 mg ml^−1 fatty-acid-free BSA as previously described (Tachibana et al., 2013). Thereafter, oocytes were incubated for 3.5-4 h in 10 mg/ml puromycin, followed by a wash step and following culture in Global total.

mouse 2-cell embryos = test: single-cell sequencing chromosome content analysis, mouse 2-cell embryos; type: cell-based
Experimental: as §1
Single cells from blastomeres were collected on the heated stage (Tokai Hit) of an Olympus IX71 inverted microscope equipped with Narishige micromanipulators and a zona pellucida laser (Hamilton-Thorne). Single nuclei were isolated from blastomeres by lysis and dissection of different nuclei using two […] diameter Piezo micropipettes and Holding pipette (Origio). Single embryo cells or nuclei were placed manually in single wells of a 96-well plate containing 9 ml of lysis buffer, prepared as a master mix of 798 ml H2O, 6 ml of 10 mg/mL Proteinase K solution (Sigma-Aldrich), and 96 ml 10× Single Cell Lysis and Fragmentation buffer (Sigma-Aldrich). Single cells/single nuclei were lysed by heating 96-well plates containing single cells/single nuclei at 50° C. for 1 hour, followed by incubation at 99° C. for four minutes using a PCR thermocycler. Single-cell/single-nuclei whole genome amplification (WGA) using degenerate oligo-nucleotide priming PCR (DOP-PCR) was performed using the SEQPLEX Enhanced DNA Amplification Kit (SEQXE, Sigma) according to the manufacturer's instructions. In addition, a modified version of the DOP-PCR protocol that allows inline indexing of WGA DNA was also applied. WGA DNA was subsequently processed for Illumina library sequencing preparation using standard TruSeq indexing methods via the NEBNext Ultra II DNA Library Prep Kit for Illumina (New England Biolabs). NEBNext Multiplex Oligos for Illumina (96 index primers) were used for four amplification cycles. Library DNA was quantified using Qubit dsDNA HS Assay Kit (Invitrogen, Carlsbad, CA, USA) and library size distribution was confirmed using a 2100 Bioanalyzer DNA 1000 Kit (Agilent, Santa Clara, CA, USA). A unimodal curve centered around 300-500 bp was scored as a successful library preparation. Subsequently, 30 mL of each pooled library was sent for sequencing at a concentration of 20 ng/ml. Mutiplex sequencing was performed using Illumina HiSeq 2500 single end indexed run (SR100) while targeting a coverage of approximately 1 million reads per cell/nuclei, sufficient for quantitative genome-wide copy number analysis.
Analysis of DNA sequencing data was performed as previously described (Baslan et al., 2015) with minor modifications as outlined below. Briefly, multiplex sequencing data were demultiplexed according to unique barcodes with reads assigned to their respective single-cell or single-nuclei. Unique reads were aligned to the reference human and mouse genome builds, hg19 and mm9, respectively. Each genome was partitioned into 5000 bins using a previously described algorithm (Varbin) that corrects for genome sequence mappability (Baslan et al., 2012; Navin et al., 2011). Uniquely mapped reads were sorted, indexed and subsequently counted within the partitioned genomic bins. For single-cell copy number inference, read count data were normalized genome-wide followed by CBS segmentation (Olshen et al., 2004) and transformed into integer copy number states using a least-squares fit approach (Baslan et al., 2015).

[2] = combined aphidicolin exposure and G2 checkpoint inhibition

Which results are given for `C[C@@]1(CO)[C@H](O)CC[C@@]2(C)[C@H]1CC[C@H]1C[C@@H]3C[C@@]12CC[C@]3(O)CO` [aphidicolin]?
mitotic entry ([1]; incubation at 14 h): prevented mitotic entry; mitotic entry ([1]; incubation at 15.5 h, compared with controls): allowed mitotic entry with a delay; mitotic entry timing ([1]; human, incubation at 18 h): no effects; also recorded: did not delay; chromosomal abnormalities per cell (mouse 2-cell embryos; aphidicolin-treated): 0.62 per cell; blastomeres showing aneuploidy (mouse 2-cell embryos; aphidicolin-treated, controls 98% normal): 33%; aneuploidies per cell (mouse 2-cell embryos; both aphidicolin and G2 checkpoint inhibitor): 2.1 per cell; blastomeres showing aneuploidy (mouse 2-cell embryos; combination of aphidicolin and G2 checkpoint inhibition): 64.5%; chromosomes with aneuploidies per cell (mouse 2-cell embryos; [2]): 2 chromosomes per cell; euploid mouse 2-cell embryos (mouse 2-cell embryos; [2]): 35.5%

— US20250034520A1, “INCREASING DEVELOPMENTAL POTENTIAL OF HUMAN PREIMPLANTATION EMBRYOS BY REDUCING GENETIC INSTABILITY, ANEUPLOIDIES AND CHROMOSOMAL MOSAICISM” (THE TRUSTEES OF COLUMBIA UNIVERSITY IN THE CITY OF NEW YORK, priority 2022, published 2025)
